SMILES strings stand for the structures. Activity calls are given as the source filed them. The calls are words filed in the database; no cut-off is given here.

The target in data set [1] is Cannabinoid receptor 1 (Homo sapiens, UniProt P21554). Nature of the data set: Inverse agonist activity at human CB1 receptor expressed in HEK293 cells assessed as forskolin-stimulated cAMP accumulation after 30 mins by HTRF assay. Format: functional, cell-based. (cAMP levels reflect the balance of adenylyl cyclase and phosphodiesterase activity.)
Chain of Cannabinoid receptor 1 (P21554 whole entry): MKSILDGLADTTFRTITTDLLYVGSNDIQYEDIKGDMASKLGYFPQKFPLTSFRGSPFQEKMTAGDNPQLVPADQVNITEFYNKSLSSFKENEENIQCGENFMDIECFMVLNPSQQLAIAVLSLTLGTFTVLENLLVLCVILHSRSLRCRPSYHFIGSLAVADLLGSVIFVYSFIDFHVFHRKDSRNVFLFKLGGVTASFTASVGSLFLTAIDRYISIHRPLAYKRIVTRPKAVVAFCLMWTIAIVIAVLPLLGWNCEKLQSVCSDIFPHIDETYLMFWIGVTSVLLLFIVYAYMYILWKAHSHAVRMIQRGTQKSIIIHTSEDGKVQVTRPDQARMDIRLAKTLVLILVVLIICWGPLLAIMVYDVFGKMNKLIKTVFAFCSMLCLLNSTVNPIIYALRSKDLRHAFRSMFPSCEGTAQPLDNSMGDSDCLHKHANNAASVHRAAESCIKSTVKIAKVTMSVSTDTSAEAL
A short description of data set [2]: Ratio of drug level in brain to plasma in C57BL/6J mouse at 20 mg/kg, po measured after 1 hr. In kind it is ADME, organism-based. The following applies: brain and plasma.
Data set [3] in a line: Ratio of drug level in brain to plasma in C57BL/6J mouse at 20 mg/kg, po measured after 4 hr. In kind it is ADME, organism-based. The following applies: brain and plasma.
Data set [4] is filed under the species Homo sapiens. Nature of the data set: Selectivity index, ratio of EC50 for human CB2 receptor expressed in HEK293 cells to EC50 for human CB1 receptor expressed in HEK293 cells. Format: cell-based.
Data set [5] deals with Mus musculus. Nature of the data set: In vivo inverse agonist activity at CB1 receptor in C57 mouse assessed as reduction in CP55940-induced inhibition of upper gastrointestinal motility at 10 mg/kg, po after 2 hrs. In kind it is functional, organism-based.

Consider `O=C(NC(CO)(CO)CO)c1ccc(S(=O)(=O)N2CCC(Nc3ncnc4ccc(C(c5ccc(Cl)cc5)c5ccc(Cl)cc5)cc34)CC2)cc1`, for which the EC50 in data set [1] worked out at 7.8 nM.

Regarding `O=S(=O)(N1CCC(Nc2ncnc3ccc(C(c4ccc(Cl)cc4)c4ccc(Cl)cc4)cc23)CC1)C(F)(F)F`, the Kp at 1 h was determined as 0.02 in data set [2] and 0.08 in data set [3]. The EC50 in data set [1] came out at 4.6 nM. In data set [4], the Ratio EC50 came out at 170.

As for `Cc1c(C(=O)NN2CCCCC2)nn(-c2ccc(Cl)cc2Cl)c1-c1ccc(Cl)cc1`, in data set [5], the outcome was Active.

As usually defined, the EC50 is the concentration that produces a half-maximal response. A word on the Kp: it is the ratio of the level in a tissue or fluid to that in plasma or blood.

The record behind these values is ChEMBL document CHEMBL4665918, “Discovery of PEGylated 6-Benzhydryl-4-amino-quinazolines as Peripherally Restricted CBR Inverse Agonists” (ACS Med Chem Lett, 2020).
